In experiment [1] the test system is Botrytis cinerea. As to the kind of experiment: Eggplant grey mold. The conditions noted are these: inoculated 24 h later, rated after 3-4 days; for Disease Control Rating at 20 ppm: eggplant sprayed with 20 ppm; for Disease Control Rating at 100 ppm: eggplant sprayed with 100 ppm; for Disease Control Rating at 500 ppm: eggplant sprayed with 500 ppm. In kind it is in vivo. Further details: scale not given here. How it is done:
Eggplant seed are planted in 2.25" square pots, six per pot, and maintained in growth chambers set at 23° C., 80% humidity, and 12 h photoperiod. When the plants are at the cotyledon stage (14-18 days afterplanting), the plants are sprayed with 1.5 mL/pot of 500, 100 or 20 ppm 2:3 acetone:water (with 0.5% Tween® 20) formulations of the test compounds.
Twenty-four hours later the plants are inoculated with Botrytis cinerea, approximately 0.5 mL/pot of a 4×10^6 spore/mL suspension. The plantes are incubated at 23° C. and 100% humidity for 3-4 days, at which time disease control ratings are made based on presence and severity of Botrytis lesions.

A further experiment concerns the target T1, succinate dehydrogenase (Botrytis cinerea, UniProt A0A384J5E4+A0A384J8V8+A0A384JHJ5).
T1 construct: succinate-DCPIP reductase assay with KCN
As to the kind of experiment: Enzyme inhibition: succinate dehydrogenase activity in Botrytis cinerea mitochondria (DCPIP reduction). In kind it is biochemical. The conditions noted are these: concentration required to inhibit the rate of DCPIP reduction by 50%; Botrytis cinerea isolate Nick mitochondria; read-out: I50 (μM conc.). How it is done: Mitochondria were isolated by a method adapted from G.A. White [Biochem. Biophys. Res. Commun. 44: 1212, 1971]. Twenty to thirty grams of Botrytis cinerea isolate Nick were resuspended in 250 mL 0.25M sucrose, 5mM Na4 EDTA, pH 7.0 (+) 0.15% (w/v) bovine serum albumin (BSA) and placed in a Bead Beater chamber (Biospec Products, Bartlesville, Ok.). Zirconium oxide beads (0.5mm) were added to finish filling the chamber. Four 30 second beats separated by 2 minute temperature equilibration periods in the cold were used to break the mycelia. A crude mitochondrial preparation was harvested from the homogenate by differential centrifugation at 4° C. and resuspended in BSA-free sucrose/EDTA media and used for SDH assays.
The succinate dehydrogenase activity was measured at 600 nm in 50 mM potassium phosphate, pH 7.2, 1 mM KCN, 45 μM 2,6-dichlorophenolindophenol (DCPIP) and 17 mM disodium succinate (final volume, 1 mL) with a Perkin-Elmer Lambda 7 ultraviolet-visible spectrophotometer. The test compounds were added as acetone solutions (final concentration of acetone, 1% (v/v)). The mitochondrial preparatons were used to initiate the reaction. All rates were corrected for endogenous activities minus succinate. Semilog plots of percentage inhibition versus test compound concentration were used to determine inhibition expressed as I50 (μM) which is the concentration required to inhibit the rate of DCPIP reduction by 50%. The commercial fungicide carboxin was used as standard throughout.

The test system of experiment [2] is Botrytis cinerea. Nature of the experiment: Vine grey mold (grape berries). In kind it is in vivo. The conditions noted are these: average of six berries, 7-10 days; for pest or weed control at 50 ppm: grape berries treated with 50 ppm, read-out: % DISEASE CONTROL 50 ppm; for pest or weed control at 200 ppm: grape berries treated with 200 ppm, read-out: % DISEASE CONTROL 200 ppm. How it is done: Grape berries, which have been washed and surfaced sterilized in 70% ethanol for one minute, are, except for the negative controls, treated with 0.2 mL of a 2:3 acetone/water formulation (containing 0.05% Tween® 20) of 200 or 50 ppm of the test compounds and placed one per well in 12-well plates. Six berries per treatment level are used. Twenty-four hours later each berry is inoculated with Botrytis cinerea conidia, 0.2 mL of 10^6 spores/mL suspension. The plates are incubated at 20° C. with a 12 hours photoperiod for 7-10 days and the percent surface area infected with the disease is determined for each replicate using the values of 0, 1, 2, 5, 7, 10, 15, 20, 25, 30, 35, 40, 45, 50, 55, 60, 65, 70, 75, 80, 85, 90, 95, and 100%. Treatment means are calculated and percent disease control is determined by the formula [(control mean - treatment mean)/control means]×100.
Some of the compounds have been tested more than once and the results shown are the average of the number of tests reported.

The next experiment has as its system Rhizoctonia solani. As to the kind of experiment: Rice sheath blight. In kind it is in vivo. On the set-up: scale not given here. The conditions noted are these: inoculated two days later, rated after 7 days, average of five plants; for Disease Control Rating at 0.5 mg/mL: foliage and soil sprayed with 0.5 mg/mL; for Disease Control Rating at 0.02 mg/mL: foliage and soil sprayed with 0.02 mg/mL; for Disease Control Rating at 0.1 mg/mL: foliage and soil sprayed with 0.1 mg/mL. How it is done: Rice plants, 11 to 15 days old, are grown in 7.65 cm^2 pots. Each plant in the treatment groups is treated by spraying both the foliage and the soil surface, each with 2 mL of a water/acetone/Tween®20 formulation containing 0.5, 0.1, or 0.02 mg/mL of Compound A. The pots are placed in flood trays which are filled with water to just below the soil line. Two days later, approximately two grams of Rhizoctonia solani inoculum, cultured on rice grain for four to eight weeks, is applied to the base of the rice plants in each pot. After 7 days in a 25° C. high humidity growth chamber, each plant is evaluated for the level of disease contro as compared to untreated controls by the following scale and the average of five plants per treatment level is calculated.

T1 sequence (A0A384J5E4 1-300): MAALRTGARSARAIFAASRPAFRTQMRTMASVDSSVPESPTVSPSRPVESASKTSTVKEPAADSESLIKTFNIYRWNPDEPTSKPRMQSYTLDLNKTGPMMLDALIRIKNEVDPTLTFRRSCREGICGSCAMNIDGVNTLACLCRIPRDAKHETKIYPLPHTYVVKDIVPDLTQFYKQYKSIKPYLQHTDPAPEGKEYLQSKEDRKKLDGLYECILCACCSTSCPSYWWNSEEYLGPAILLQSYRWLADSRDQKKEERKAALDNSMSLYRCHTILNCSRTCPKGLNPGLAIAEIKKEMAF
T1 sequence (A0A384J8V8 1-189): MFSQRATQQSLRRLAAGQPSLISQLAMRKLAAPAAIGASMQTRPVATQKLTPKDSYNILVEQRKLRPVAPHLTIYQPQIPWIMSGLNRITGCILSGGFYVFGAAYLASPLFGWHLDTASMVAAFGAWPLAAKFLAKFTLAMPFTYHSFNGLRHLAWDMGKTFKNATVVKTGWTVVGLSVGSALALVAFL
T1 sequence (A0A384JHJ5 1-192): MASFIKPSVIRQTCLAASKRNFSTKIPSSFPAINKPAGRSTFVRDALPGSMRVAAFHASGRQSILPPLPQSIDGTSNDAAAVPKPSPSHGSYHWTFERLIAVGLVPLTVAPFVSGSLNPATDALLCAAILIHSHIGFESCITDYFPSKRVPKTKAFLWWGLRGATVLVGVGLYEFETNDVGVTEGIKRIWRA
T1 sequence (A0A384K456 1-647 partner): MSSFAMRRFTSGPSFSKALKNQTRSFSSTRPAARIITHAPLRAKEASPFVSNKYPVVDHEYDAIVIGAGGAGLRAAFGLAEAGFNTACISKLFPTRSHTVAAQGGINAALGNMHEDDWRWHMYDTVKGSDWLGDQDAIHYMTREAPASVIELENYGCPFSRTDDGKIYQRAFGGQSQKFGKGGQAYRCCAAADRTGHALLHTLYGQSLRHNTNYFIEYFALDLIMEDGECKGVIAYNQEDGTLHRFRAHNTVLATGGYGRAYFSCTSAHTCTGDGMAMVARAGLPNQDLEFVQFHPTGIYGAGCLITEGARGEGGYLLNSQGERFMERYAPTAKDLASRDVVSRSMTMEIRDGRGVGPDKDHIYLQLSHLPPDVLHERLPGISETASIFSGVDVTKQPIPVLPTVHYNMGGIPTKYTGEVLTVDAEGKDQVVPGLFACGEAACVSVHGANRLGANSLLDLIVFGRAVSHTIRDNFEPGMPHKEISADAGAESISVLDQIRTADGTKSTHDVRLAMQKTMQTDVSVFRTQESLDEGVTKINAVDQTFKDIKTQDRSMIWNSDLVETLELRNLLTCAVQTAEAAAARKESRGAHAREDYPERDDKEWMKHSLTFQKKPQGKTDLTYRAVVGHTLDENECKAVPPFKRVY

On to `CC(C)C1CCCC=C1c1ccccc1NC(=O)c1cn(C)nc1C(F)(F)F` (stereo not shown) [Example 131, 1H-pyrazole-4-carboxamide, 1-methyl-N-[2-[6-(1-methylethyl)-1-cyclohexen-1-yl]phenyl]-3-(trifluoromethyl)-], for which, in the experiment on Botrytis cinerea [1], the “Disease Control Rating at 20 ppm” value is reported as 0, the “Disease Control Rating at 100 ppm” value came out at 0 and the “Disease Control Rating at 500 ppm” value worked out at 0. The IC50 at succinate dehydrogenase came to 0.19 µM. For the same compound, in the experiment with Botrytis cinerea [2], the pest or weed control at 50 ppm turned out to be 7% and the pest or weed control at 200 ppm stood at 0%. Moreover, the “Disease Control Rating at 0.5 mg/mL” value with Rhizoctonia solani stood at 2.

For `Cn1cc(C(=O)Nc2ccccc2C2CCCC2)c(C(F)F)n1` [Example 7, 1H-pyrazole-4-carboxamide, N-(2-cyclopentylphenyl)-3-(difluoromethyl)-1-methyl-], the “Disease Control Rating at 500 ppm” value in the experiment with Botrytis cinerea [1] turned out to be 0. At succinate dehydrogenase, the IC50 amounted to 0.0072 µM. In addition, in the experiment on Botrytis cinerea [2], the pest or weed control at 50 ppm was found to be 72% and the pest or weed control at 200 ppm worked out at 86%. In the experiment on Rhizoctonia solani, the “Disease Control Rating at 0.5 mg/mL” value is on record as 1.

Consider `Cn1cc(C(=O)Nc2cc(Cl)ccc2C2CCCCC2)c(C(F)F)n1` [Example 93, 1H-pyrazole-4-carboxamide, N-(5-chloro-2-cyclohexylphenyl)-3-(difluoromethyl)-1-methyl-], for which, in the experiment on Botrytis cinerea [1], the “Disease Control Rating at 20 ppm” value amounted to 0, the “Disease Control Rating at 100 ppm” value worked out at 0 and the “Disease Control Rating at 500 ppm” value worked out at 0. Besides, at succinate dehydrogenase, the IC50 worked out at 0.044 µM. Besides, in the experiment on Botrytis cinerea [2], the pest or weed control at 50 ppm turned out to be 0% and the pest or weed control at 200 ppm is 15%. In addition, in the experiment with Rhizoctonia solani, the “Disease Control Rating at 0.5 mg/mL” value was determined as 0.

For `Cn1cc(C(=S)Nc2ccccc2[C@@H]2C[C@H]3CC[C@@H]2C3)c(C(F)F)n1` (relative stereo) [Example 102, 1H-pyrazole-4-carbothioamide, N-(2-bicyclo[2.2.1]hept-2-ylphenyl)-3-(difluoromethyl)-1-methyl-, exo-], the “Disease Control Rating at 500 ppm” value with Botrytis cinerea [1] is on record as 1. Further, at succinate dehydrogenase, the IC50 stood at 16 µM. In addition, in the experiment on Botrytis cinerea [2], the pest or weed control at 50 ppm is 88% and the pest or weed control at 200 ppm came to 83%. In addition, in the experiment with Rhizoctonia solani, the “Disease Control Rating at 0.02 mg/mL” value turned out to be 3, the “Disease Control Rating at 0.1 mg/mL” value is listed as 3 and the “Disease Control Rating at 0.5 mg/mL” value came to 3.

Regarding `Cn1nc(C(F)(F)F)c(C(=O)Nc2ccccc2[C@@H]2C[C@H]3CC[C@@H]2C3)c1Cl` (relative stereo) [Example 88, 1H-pyrazole-4-carboxamide, N-(2-bicyclo[2.2.1]hept-2-ylphenyl)-5-chloro-1-methyl-3-(trifluoromethyl)-, exo-], the “Disease Control Rating at 500 ppm” value with Botrytis cinerea [1] amounted to 0. The IC50 at succinate dehydrogenase was determined as 0.035 µM. Besides, in the experiment with Botrytis cinerea [2], the pest or weed control at 50 ppm was found to be 0% and the pest or weed control at 200 ppm is 0%. The “Disease Control Rating at 0.5 mg/mL” value in the experiment on Rhizoctonia solani turned out to be 0.

Regarding `Cn1cc(C(=O)Nc2ccccc2C2CCCCC2)c(C(F)F)n1` [Example 1, 1H-pyrazole-4-carboxamide, N-(2-cyclohexylphenyl)-3-(difluoromethyl)-1-methyl-], in the experiment on Botrytis cinerea [1], the “Disease Control Rating at 20 ppm” value came to 3, the “Disease Control Rating at 100 ppm” value was found to be 3 and the “Disease Control Rating at 500 ppm” value stood at 3. Moreover, the IC50 on succinate dehydrogenase is 0.0095 µM. Besides, in the experiment on Botrytis cinerea [2], the pest or weed control at 50 ppm was determined as 92% and the pest or weed control at 200 ppm was 94%. Further, in the experiment with Rhizoctonia solani, the “Disease Control Rating at 0.02 mg/mL” value was determined as 2, the “Disease Control Rating at 0.1 mg/mL” value came out at 0 and the “Disease Control Rating at 0.5 mg/mL” value worked out at 0.

`CC1CC=C(c2ccccc2NC(=O)c2cn(C)nc2C(F)(F)F)C1` (stereo not shown) [Example 150, 1H-pyrazole-4-carboxamide, N-[2-(4-methyl-1-cyclopenten-1-yl)phenyl]-1-methyl-3-(trifluoromethyl)-]: in the experiment with Botrytis cinerea [1], the “Disease Control Rating at 20 ppm” value worked out at 0, the “Disease Control Rating at 100 ppm” value is 0 and the “Disease Control Rating at 500 ppm” value was determined as 2. The IC50 at succinate dehydrogenase was 0.026 µM. For the same compound, in the experiment on Botrytis cinerea [2], the pest or weed control at 50 ppm was 40% and the pest or weed control at 200 ppm was 100%. Further, the “Disease Control Rating at 0.5 mg/mL” value with Rhizoctonia solani is 3.

Take `Cn1cc(C(=O)Nc2ccccc2CC2CCCCC2)c(C(F)(F)F)n1` [Example 130, 1H-pyrazole-4-carboxamide, N-[2-(cyclohexylmethyl)phenyl]-1-methyl-3-(trifluoromethyl)-]: in the experiment on Botrytis cinerea [1], the “Disease Control Rating at 20 ppm” value stood at 0, the “Disease Control Rating at 100 ppm” value is 0 and the “Disease Control Rating at 500 ppm” value is on record as 0. For the same compound, on succinate dehydrogenase, the IC50 was 0.37 µM. In the experiment with Botrytis cinerea [2], the pest or weed control at 50 ppm stood at 2% and the pest or weed control at 200 ppm stood at 21%. The “Disease Control Rating at 0.5 mg/mL” value in the experiment on Rhizoctonia solani was determined as 2.

Turning to `CC(C)C1=C(c2ccccc2NC(=O)c2cn(C)nc2C(F)(F)F)CCCC1` [Example 128, 1H-pyrazole-4-carboxamide, N-[2-[2-(1-methylethyl)-1-cyclohexen-1-yl]phenyl]-1-methyl-3-(trifluoromethyl)-], in the experiment on Botrytis cinerea [1], the “Disease Control Rating at 20 ppm” value stood at 0, the “Disease Control Rating at 100 ppm” value is on record as 0 and the “Disease Control Rating at 500 ppm” value was 0. Besides, at succinate dehydrogenase, the IC50 amounted to 1.3 µM. Also, in the experiment on Botrytis cinerea [2], the pest or weed control at 50 ppm worked out at 0% and the pest or weed control at 200 ppm was 0%. In addition, in the experiment on Rhizoctonia solani, the “Disease Control Rating at 0.5 mg/mL” value is 0.

With `CCC1CC=C(c2ccccc2NC(=O)c2cn(C)nc2C(F)(F)F)CC1` (stereo not shown) [Example 126, 1H-pyrazole-4-carboxamide, N-[2-(4-ethyl-1-cyclohexen-1-yl)phenyl]-1-methyl-3-(trifluoromethyl)-], in the experiment on Botrytis cinerea [1], the “Disease Control Rating at 20 ppm” value is listed as 0, the “Disease Control Rating at 100 ppm” value was 1 and the “Disease Control Rating at 500 ppm” value stood at 1. Besides, at succinate dehydrogenase, the IC50 is 0.0066 µM. Moreover, in the experiment on Botrytis cinerea [2], the pest or weed control at 50 ppm worked out at 59% and the pest or weed control at 200 ppm was determined as 97%. In the experiment with Rhizoctonia solani, the “Disease Control Rating at 0.5 mg/mL” value came to 3.

`Cc1c(C(=O)Nc2ccccc2C2CCCC2)c(C(F)(F)F)nn1C` [Example 101, 1H-pyrazole-4-carboxamide, N-(2-cyclopentylphenyl)-1,5-dimethyl-3-(trifluoromethyl)-]: the “Disease Control Rating at 500 ppm” value in the experiment with Botrytis cinerea [1] is 0. Besides, on succinate dehydrogenase, the IC50 amounted to 1.4 µM. Further, in the experiment with Botrytis cinerea [2], the pest or weed control at 50 ppm stood at 10% and the pest or weed control at 200 ppm was 16%. In addition, in the experiment with Rhizoctonia solani, the “Disease Control Rating at 0.02 mg/mL” value amounted to 0, the “Disease Control Rating at 0.1 mg/mL” value is reported as 1 and the “Disease Control Rating at 0.5 mg/mL” value amounted to 3.

With `Cn1cc(C(=O)Nc2ccccc2CC2CCCCCC2)c(C(F)F)n1` [Example 145, 1H-pyrazole-4-carboxamide, 1-methyl-N-[2-(cycloheptylmethyl)-phenyl]-3-(difluoromethyl)-], in the experiment with Botrytis cinerea [1], the “Disease Control Rating at 20 ppm” value came out at 0, the “Disease Control Rating at 100 ppm” value is 0 and the “Disease Control Rating at 500 ppm” value came to 0. Further, at succinate dehydrogenase, the IC50 amounted to 0.025 µM. In the experiment with Botrytis cinerea [2], the pest or weed control at 50 ppm came out at 0% and the pest or weed control at 200 ppm came to 0%. In addition, the “Disease Control Rating at 0.5 mg/mL” value in the experiment on Rhizoctonia solani came to 3.

For the origin of these results see US5223526A, “Pyrazole carboxanilide fungicides and use” (Monsanto Company, priority 1992, dated 1993).
